Data: patent publication US20130116231A1, “TYROSINE KINASE INHIBITORS” (Merck Sharp & Dohme Corp., priority 2010, published 2013)

Each molecule was assayed against T1, human c-Met (Homo sapiens, UniProt P08581) (assay: in vitro kinase assay (homogeneous time-resolved tyrosine kinase assay, METKA)). Settings: recombinant GST-tagged c-Met cytosolic domain, HTRF, 50 μM MgATP; read-out: Biological Activity (METKA IC50) Activity Code.
T1 construct: Recombinant GST-tagged cytosolic domains of human c-Met; 6xHis; made in house; host or cells: Sf9 or Sf21 insect cells (baculovirus)
T1 sequence (P08581 956-1390 limits assumed): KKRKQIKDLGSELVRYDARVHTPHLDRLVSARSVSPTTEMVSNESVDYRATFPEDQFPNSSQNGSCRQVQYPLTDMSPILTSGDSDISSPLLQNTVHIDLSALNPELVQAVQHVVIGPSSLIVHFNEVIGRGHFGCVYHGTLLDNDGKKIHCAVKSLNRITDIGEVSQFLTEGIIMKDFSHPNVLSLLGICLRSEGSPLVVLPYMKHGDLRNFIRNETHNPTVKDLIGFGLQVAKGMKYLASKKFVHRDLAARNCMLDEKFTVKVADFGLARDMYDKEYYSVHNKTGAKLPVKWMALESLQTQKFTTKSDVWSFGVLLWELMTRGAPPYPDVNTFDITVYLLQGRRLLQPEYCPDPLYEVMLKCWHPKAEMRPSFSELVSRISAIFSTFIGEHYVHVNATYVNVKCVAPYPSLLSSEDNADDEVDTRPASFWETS
Format: biochemical
Excerpt: Recombinant GST-tagged cytosolic domains of human c-Met and other receptor tyrosine kinases including mouse c-Met, human Ron, KDR, IGFR, EGFR, FGFR, Mer, TrkA and Tie2 are used to determine whether the compounds of the instant invention modulate the enzymatic activities of these kinases.
Soluble recombinant GST-tagged cytosolic domains of c-Met and other receptor tyrosine kinases are expressed in a baculovirus system (Pharmingen) according to a protocol recommended by the manufacturer. The c-DNA encoding each cytosolic domain is subcloned into a baculovirus expression vector (pGcGHLT-A, B or C, Pharmingen) containing an in frame 6× histidine tag and a GST tag. The resulting plasmid construct and BaculoGold baculovirus DNA (Pharmingen) are used to co-transfect Sf9 or Sf21 insect cells. After confirming expression of GST-tagged kinase fusion, a high titer recombinant baculovirus stock is produced, expression conditions are optimized, and a scaled up expression of rat KDR-GST fusion is performed. The fusion kinase is then purified from the insect cell lysate by affinity chromatography using glutathione agarose (Pharmingen). The purified protein is dialyzed against 50% glycerol, 2 mM DTT, 50 mM Tris-HCl (pH 7.4) and stored at −20° C. The protein concentrations of the fusion proteins are determined using Coomassie Plus Protein Assay (Pierce) with BSA as standard.
The kinase activities of c-Met and other kinases are measured using a modified version of the homogeneous time-resolved tyrosine kinase assay described by Park et al. (1999, Anal. Biochem. 269:94-104).
The procedure for determining the potency of a compound to inhibit c-Met kinase comprises the following steps: • 1. Prepare 3-fold serial diluted compound solutions in 100% dimethyl sulfoxide (DMSO) at 20× of the desired final concentrations in a 96 well plate. • 2. Prepare a master reaction mix containing 6.67 mM MgCl2, 133.3 mM NaCl, 66.7 mM Tris-HCl (pH 7.4), 0.13 mg/ml BSA, 2.67 mM dithiothreitol, 0.27 nM recombinant c-Met and 666.7 nM biotinylated synthetic peptide substrate (biotin-ahx-EQEDEPEGDYFEWLE-CONH2) (SEQ.ID.NO.:1). • 3. In a black assay plate, add 2.5 μl of compound solution (or DMSO) and 37.5 μl of master reaction mix per well. Initiate the kinase reaction by adding 10 μl of 0.25 mM MgATP per well. Allow the reactions to proceed for 80 min at room temperature. The final conditions for the reaction are 0.2 nM c-Met, 0.5 μM substrate, 50 μM MgATP, […], 100 mM NaCl, 2 mM DTT, 0.1 mg/ml BSA, 50 mM Tris (pH 7.4) and 5% DMSO. • 4. Stop the kinase reaction with 50 μl of Stop/Detection buffer containing 10 mM EDTA, 25 mM HEPES, 0.1% TRITON X-100, 0.126 μg/ml Eu-chelate labeled anti-phosphotyrosine antibody PY20 (cat. #AD0067, PerkinElmer) and 45 μg/ml Streptavidin-allophycocyanin conjugate (cat. #PJ25S, Prozyme). • 5. Read HTRF signals on a Victor reader (PerkinElmer) in HTRF mode after 60 min. • 6. IC50 is determined by fitting the observed relationship between compound concentration and HTRF signal with a 4-parameter logistic equation. Essentially the same procedure was used to determine the potency of compounds to inhibit mouse c-Met, human Ron, KDR, IGFR, EGFR, FGFR, Mer, TrkA and Tie2 except that the concentration of enzyme varied in individual assays (0.2 nM mouse c-Met; 2.5 nM Ron, 8 nM KDR; 0.24 nM IGFR; 0.24 nM EGFR; 0.14 nM FGFR; 16 nM Mer; 8 nM TrkA; 8 nM Tie2).

Row | Compound | IC50
1 | Cn1cc(-n2ccc(=O)c(COc3ccc4ncc(OC5COC5)cc4c3)n2)cn1 [Example 63, 1-(1-Methyl-1H-pyrazol-4-yl)-3-({[3-(oxetan-3-yloxy)quinolin-6-yl]oxy}methyl)pyridazin-4(1H)-one] | < 100 nM
2 | CCn1cc(-n2ccc(=O)c(COc3ccc4ncc(-c5cscn5)cc4c3)n2)cn1 [Example 86, 1-(1-ethyl-1H-pyrazol-4-yl)-3-({[3-(1,3-thiazol-4-yl)quinolin-6-yl]oxy}methyl)pyridazin-4(1H)-one] | < 100 nM
3 | Cn1cc(-n2ccc(=O)c(COc3ccc([N+](=O)[O-])cc3)n2)cn1 [Example 9, 1-(1-methyl-1H-pyrazol-4-yl)-3-[(4-nitrophenoxy)methyl] pyridazin-4(1H)-one] | 1000 to 3000 nM
4 | C=C(Cc1nn(-c2cnn(C)c2)ccc1=O)c1ccc2ncccc2c1 [Example 124, 1-(1-Methyl-1H-pyrazol-4-yl)-3-(2-quinolin-6-ylprop-2-en-1-yl)pyridazin-4(1H)-one] | 100 to 1000 nM
5 | Cn1cc(-n2ccc(=O)c(COc3ccc(C(=O)NCC(F)(F)F)cc3)n2)cn1 [Example 18, 4-{[1-(1-methyl-1H-pyrazol-4-yl)-4-oxo-1,4-dihydropyridazin-3-yl]methoxy}-N-(2,2,2-trifluoroethyl) benzamide] | 1000 to 3000 nM
6 | Cn1cc(-n2ccc(=O)c(COc3ccc4ncc(O)cc4c3)n2)cn1 [Example 61, 3-Hydroxy-6-{[1-(1-methyl-1H-pyrazol-4-yl)-4-oxo-1,4-dihydropyridazin-3-yl]methoxy}quinolinium chloride] | < 100 nM
7 | CN(Cc1nn(-c2cnn(C)c2)ccc1=O)c1ccc2ncccc2c1 [Example 108, 1-(1-Methyl-1H-pyrazol-4-yl)-3-{[methyl(quinolin-6-yl)amino]methyl}pyridazin-4(1H)-one] | < 100 nM
8 | Cn1cc(-n2ccc(=O)c(CNc3ccc4ncccc4c3)n2)cn1 [Example 104, 1-(1-Methyl-1H-pyrazol-4-yl)-3-[(quinolin-6-ylamino)methyl]pyridazin-4(1H)-one] | < 100 nM
9 | COCCOc1cnc2ccc(OCc3nn(-c4cc(F)cc(C#N)c4)ccc3=O)cc2c1 [Example 28, 3-fluoro-5-[3-({[3-(2-methoxyethoxy)quinolin-6-yl]oxy}methyl)-4-oxopyridazin-1(4H)-yl]benzonitrile] | < 100 nM
10 | CCn1cc(-n2ccc(=O)c(COc3ccc4ncc(-c5ccc(Cl)nc5)cc4c3)n2)cn1 [Example 88, 3-({[3-(6-chloropyridin-3-yl)quinolin-6-yl]oxy}methyl)-1-(1-ethyl-1H-pyrazol-4-yl)pyridazin-4(1H)-one] | < 100 nM
11 | CC(C)COC(=O)Nc1ccc(OCc2nn(-c3cnn(C)c3)ccc2=O)cc1 [Example 123, 2-methylpropyl (4-{[1-(1-methyl-1H-pyrazol-4-yl)-4-oxo-1,4-dihydropyridazin-3-yl]methoxy}phenyl)carbamate] | 1000 to 3000 nM
12 | Cn1cc(-c2cnc3ccc(COc4nn(-c5cnn(C)c5)ccc4=O)cc3c2)cn1 [Example 129, 1-(1-methyl-1H-pyrazol-4-yl)-3-{[3-(1-methyl-1H-pyrazol-4-yl)quinolin-6-yl]methoxy}pyridazin-4(1H)-one] | < 100 nM
13 | CCOc1cnc2ccc(NCc3nn(-c4cnn(C)c4)ccc3=O)cc2c1 [Example 103, 3-{[(3-ethoxyquinolin-6-yl)amino]methyl}-1-(1-methyl-1H-pyrazol-4-yl)pyridazin-4(1H)-one] | 100 to 1000 nM
14 | Cn1cc(-n2ccc(=O)c(CCc3ccc(N)cc3)n2)cn1 [Example 117, 3-[2-(4-aminophenyl)ethyl]-1-(1-methyl-1H-pyrazol-4-yl)pyridazin-4(1H)-one] | 1000 to 3000 nM
15 | CCn1cc(-n2ccc(=O)c(COc3ccc4ncc(OC5CCOC5)cc4c3)n2)cn1 (stereo not shown) [Example 69, 1-(1-ethyl-1H-pyrazol-4-yl)-3-({[3-(tetrahydrofuran-3-yloxy)quinolin-6-yl]oxy}methyl)pyridazin-4(1H)-one] | < 100 nM
16 | CCOc1cnc2ccc(OCc3nn(-c4cc(Cl)cc(C#N)c4)ccc3=O)cc2c1 [Example 45, 3-chloro-5-[3-{[(3-ethoxyquinolin-6-yl)oxy]methyl}-4-oxopyridazin-1(4H)-yl]benzonitrile] | < 100 nM
17 | CCOCCOc1ccnc2ccc(OCc3nn(-c4cnn(C)c4)ccc3=O)cc12 [Example 33, 3-({[4-(2-ethoxyethoxy)quinolin-6-yl]oxy}methyl)-1-(1-methyl-1H-pyrazol-4-yl)pyridazin-4(1H)-one] | 100 to 1000 nM
18 | CC(Oc1nn(-c2cnn(C)c2)ccc1=O)c1ccc2ncccc2c1 (single isomer, unassigned) [Example 139, 1-(1-methyl-1H-pyrazol-4-yl)-3-(1-quinolin-6-ylethoxy)pyridazin-4(1H)-one] | 100 to 1000 nM
19 | Cc1ccnc2ccc(OCc3nn(-c4cnn(C)c4)ccc3=O)cc12 [Example 50, 1-(1-methyl-1H-pyrazol-4-yl)-3-{[(4-methylquinolin-6-yl)oxy]methyl}pyridazin-4(1H)-one] | < 100 nM
20 | Cn1cc(-n2ccc(=O)c(COc3ccc4ncc5c(c4c3)OCCO5)n2)cn1 [Example 107, 3-[(2,3-dihydro[1,4]dioxino[2,3-c]quinolin-9-yloxy)methyl]-1-(1-methyl-1H-pyrazol-4-yl)pyridazin-4(1H)-one] | < 100 nM
21 | Cn1cc(-n2ccc(=O)c(OCc3ccc4ncccc4c3)n2)cn1 [Example 127, 1-(1-Methyl-1H-pyrazol-4-yl)-3-(quinolin-6-ylmethoxy)pyridazin-4(1H)-one] | 1000 to 3000 nM
22 | CCOc1cnc2ccc(C(C)Oc3nn(-c4cnn(C)c4)ccc3=O)cc2c1 (single isomer, unassigned) [Example 141, 3-[1-(3-ethoxyquinolin-6-yl)ethoxy]-1-(1-methyl-1H-pyrazol-4-yl)pyridazin-4(1H)-one] | < 100 nM
23 | CC(Oc1nn(-c2cnn(C)c2)ccc1=O)c1ccc2ncc(-c3cnn(C)c3)cc2c1 (stereo not shown) [Example 136, 1-(1-methyl-1H-pyrazol-4-yl)-3-{1-[3-(1-methyl-1H-pyrazol-4-yl)quinolin-6-yl]ethoxy}pyridazin-4(1H)-one] | < 100 nM
24 | Cn1cc(-n2ccc(=O)c(COc3ccc4ncc(-c5cnn(C6CN(C(=O)OC(C)(C)C)C6)c5)cc4c3)n2)cn1 [Example 92, tert-Butyl 3-[4-(6-{[1-(1-methyl-1H-pyrazol-4-yl)-4-oxo-1,4-dihydropyridazin-3-yl]methoxy}quinolin-3-yl)-1H-pyrazol-1-yl]azetidine-1-carboxylate] | < 100 nM
25 | CCOc1cnc2ccc(OCc3nn(-c4cc(F)cc(F)c4)ccc3=O)cc2c1 [Example 47, 1-(3,5-difluorophenyl)-3-{[(3-ethoxyquinolin-6-yl)oxy]methyl}pyridazin-4(1H)-one] | < 100 nM
26 | CCc1cnc2ccc(OCc3nn(-c4cnn(C)c4)ccc3=O)cc2c1 [Example 72, 3-{[(3-ethylquinolin-6-yl)oxy]methyl}-1-(1-methyl-1H-pyrazol-4-yl)pyridazin-4(1H)-one] | < 100 nM
27 | CCOc1cnc2ccc(C(C)Oc3nn(-c4cnn(C)c4)ccc3=O)cc2c1 (single isomer, unassigned) [Example 142, 3-[1-(3-ethoxyquinolin-6-yl)ethoxy]-1-(1-methyl-1H-pyrazol-4-yl)pyridazin-4(1H)-one] | 1000 to 3000 nM
28 | CCn1cc(-n2ccc(=O)c(COc3ccc4ncc(-c5ccc(OC)cc5)cc4c3)n2)cn1 [Example 79, 1-(1-ethyl-1H-pyrazol-4-yl)-3-({[3-(4-methoxyphenyl)quinolin-6-yl]oxy}methyl)pyridazin-4(1H)-one] | < 100 nM
